Data taken from PMC3914206.

Columns and labels:
Format in all cases: binding
Settings in all cases: Compound Concentration 10 µM
panel of 442 kinases [1] = target: T1, panel of 442 kinases (Homo sapiens, UniProt Q9Y2H1)
T1 construct: purchased KINOMEscan
Text: (§1) We assessed the selectivity of members of this scaffold using the KINOMEscan methodology across a near comprehensive panel of 442 kinases [[18,27]].

panel of 442 kinases [2] = target: T2, panel of 442 kinases (Homo sapiens, UniProt P49336)
T2 construct: purchased KINOMEscan
T2 sequence (P49336 whole entry): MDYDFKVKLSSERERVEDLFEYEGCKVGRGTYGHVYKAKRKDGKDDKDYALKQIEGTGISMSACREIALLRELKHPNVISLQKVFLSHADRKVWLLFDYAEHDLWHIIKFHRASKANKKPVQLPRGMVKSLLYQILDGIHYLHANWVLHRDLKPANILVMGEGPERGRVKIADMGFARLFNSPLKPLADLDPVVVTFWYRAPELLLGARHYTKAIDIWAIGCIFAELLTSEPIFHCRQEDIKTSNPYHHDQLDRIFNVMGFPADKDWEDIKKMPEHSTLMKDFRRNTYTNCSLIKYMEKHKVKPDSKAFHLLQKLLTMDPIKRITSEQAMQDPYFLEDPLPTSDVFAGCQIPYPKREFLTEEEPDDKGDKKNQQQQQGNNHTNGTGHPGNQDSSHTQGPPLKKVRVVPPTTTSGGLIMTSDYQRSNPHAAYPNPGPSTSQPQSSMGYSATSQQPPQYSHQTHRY
Text: as §1

panel of 442 kinases [3] = target: T3, panel of 442 kinases (Homo sapiens, UniProt Q9Y2U5)
T3 construct: purchased KINOMEscan
T3 sequence (Q9Y2U5 1-619): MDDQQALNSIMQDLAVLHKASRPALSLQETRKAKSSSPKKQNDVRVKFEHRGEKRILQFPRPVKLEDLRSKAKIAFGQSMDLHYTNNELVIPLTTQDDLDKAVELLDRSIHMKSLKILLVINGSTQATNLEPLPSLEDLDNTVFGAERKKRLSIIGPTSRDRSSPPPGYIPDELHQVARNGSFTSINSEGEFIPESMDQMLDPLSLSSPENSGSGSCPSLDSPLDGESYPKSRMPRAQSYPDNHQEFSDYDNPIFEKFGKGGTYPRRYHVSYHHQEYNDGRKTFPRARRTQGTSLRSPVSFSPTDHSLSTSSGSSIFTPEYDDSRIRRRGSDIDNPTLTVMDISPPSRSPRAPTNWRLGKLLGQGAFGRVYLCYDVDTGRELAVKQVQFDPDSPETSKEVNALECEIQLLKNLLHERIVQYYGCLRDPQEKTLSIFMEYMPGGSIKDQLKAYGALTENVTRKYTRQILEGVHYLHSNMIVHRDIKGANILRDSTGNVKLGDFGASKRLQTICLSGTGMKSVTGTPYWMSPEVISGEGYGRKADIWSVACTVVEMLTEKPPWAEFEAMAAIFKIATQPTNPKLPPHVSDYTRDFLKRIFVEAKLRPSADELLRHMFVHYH
Text: as §1

T1 sequence (Q9Y2H1 whole entry): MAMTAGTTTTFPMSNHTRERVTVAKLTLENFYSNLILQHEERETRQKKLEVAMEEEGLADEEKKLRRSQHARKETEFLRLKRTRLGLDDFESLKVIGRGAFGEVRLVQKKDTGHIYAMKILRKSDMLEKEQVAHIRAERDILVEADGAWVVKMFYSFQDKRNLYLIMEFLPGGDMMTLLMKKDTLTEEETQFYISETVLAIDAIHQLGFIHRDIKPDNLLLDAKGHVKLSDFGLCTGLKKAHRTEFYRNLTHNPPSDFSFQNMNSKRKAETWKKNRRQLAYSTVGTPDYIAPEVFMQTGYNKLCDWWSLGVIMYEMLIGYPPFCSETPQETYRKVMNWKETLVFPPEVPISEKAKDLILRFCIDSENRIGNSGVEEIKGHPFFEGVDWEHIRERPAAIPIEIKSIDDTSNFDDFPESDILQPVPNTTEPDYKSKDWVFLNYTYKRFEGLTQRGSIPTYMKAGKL

Question: Which “KINOMEscan: NDR2” value (panel of 442 kinases [1]) does the source give for `COc1cc(C(=O)N2CCC(N3CCN(C)CC3)CC2)ccc1Nc1ncc2c(n1)N(C)c1ccccc1C(=O)N2C` [15 (LRRK2-IN-1)] here?
Answer: 100

Question: What about the “KINOMEscan: CDK8” value (panel of 442 kinases [2]) of the same compound?
Answer: 100

Question: And the “KINOMEscan: MAP3K2” value (panel of 442 kinases [3])?
Answer: 97

Question: With `CCOc1cc(C(=O)N2CCC(N3CCN(C)CC3)CC2)ccc1Nc1ncc2c(n1)N(C1CCCC1)c1ccccc1C(=O)N2C` [Compound 26] as the compound, how does the “KINOMEscan: NDR2” value (panel of 442 kinases [1]) read?
Answer: 100

Question: And the “KINOMEscan: CDK8” value (panel of 442 kinases [2])?
Answer: 95

Question: And the “KINOMEscan: MAP3K2” value (panel of 442 kinases [3])?
Answer: 100

Question: Which “KINOMEscan: CDK8” value (panel of 442 kinases [2]) does the source give for `COc1cc(C(=O)N2CCC(N3CCN(C)CC3)CC2)ccc1Nc1ncc2c(n1)N1CCc3cccc(c31)C(=O)N2C` [Compound 24] here?
Answer: 91

Question: What does the source list for `COc1cc(C(=O)N2CCC(N3CCN(C)CC3)CC2)ccc1Nc1ncc2c(n1)N(C1CCCC1)c1ccccc1C(=O)N2C` [Compound 25, 11-cyclopentyl-2-((2-methoxy-4-(4-(4-methylpiperazin-1-yl)piperidine-1-carbonyl)phenyl)amino)-5-methyl-5H-benzo[e]pyrimido[5,4-b][1,4]diazepin-6(11H)-one]?
Answer: KINOMEscan: NDR2 (panel of 442 kinases [1]): 100; KINOMEscan: CDK8 (panel of 442 kinases [2]): 100; KINOMEscan: MAP3K2 (panel of 442 kinases [3]): 90
